Data published in patent publication US9512084B2, “Amino pyrimidine derivatives” (Novartis AG, priority 2013, dated 2016).

Key:
[1] = target: full-length human recombinant BTK (Homo sapiens (Human), UniProt Q06187); test: Inhibition of Btk enzymatic activity (biochemical enzyme assay, Caliper); conditions: 6.4 nM enzyme solution, 164 μM ATP solution, 30° C., 60 minutes
Experimental: The inhibitory activity of the present compounds against Btk was assessed in a biochemical enzyme assay. […] The assay plates were prepared by addition of 50 nl per well of compound solution in 90% DMSO. […] Kinase reactions were analyzed on a Caliper LC3000 workstation by separating phosphorylated and unphosphorylated peptides and kinase activities were calculated from the amounts of newly formed phospho-peptide.

Btk = Btk (Rattus norvegicus, UniProt Q5S255); test: Inhibition of Btk activity in blood (in vitro B cell activation assay, CD86, rat whole blood); assay type: cell-based; conditions: Lewis rat whole blood diluted to 50%, anti-rat IgM + rat IL-4, 24 hours, CD86 on CD45RA positive B cells
Experimental: Alternatively, the inhibitory activity of the present compounds in blood was assessed in the following in vitro B cell activation assay. Whole blood was collected from the abdominal aorta of anaesthetized adult male Lewis rats and was anticoagulated with 100 U/ml sodium heparin. Blood was then diluted to 50% with high glucose DMEM (Amimed) supplemented with […] penicillin, […], 2 mM L-glutamin, 50 mg/ml dextran 40 and 5% FCS (Fetaclone I, Gibco). Then, 190 μl prediluted blood was mixed in 96 well U-bottomed microtiter plates (Nunc) with 10 μl of serial dilutions of test compounds in DMSO. […] Activation of B cells was measured by flow cytometry after staining for the B cell subset with PE-Cy5-labeled anti-ratCD45RA (Beckton-Dickinson) and for the activation marker CD86 (PE-labeled anti-rat CD86 (Beckton-Dickinson). All staining procedures were performed at RT for 30 min in the dark in 96-deep well V-bottomed microtiter plates (Corning) with BD Lysing Solution (Beckton-Dickinson).
Cytometric data was acquired on a FACScalibur flow cytometer (BD Biosciences) and the subpopulation of lymphocytes were gated according to size and granularity and further analyzed for expression of CD45RA and the activation markers. Data for the inhibition of B cell activation were calculated from the percentage of cells positively stained for activation markers within the CD45RA positive population.

Chain of full-length human recombinant BTK (Q06187 whole entry): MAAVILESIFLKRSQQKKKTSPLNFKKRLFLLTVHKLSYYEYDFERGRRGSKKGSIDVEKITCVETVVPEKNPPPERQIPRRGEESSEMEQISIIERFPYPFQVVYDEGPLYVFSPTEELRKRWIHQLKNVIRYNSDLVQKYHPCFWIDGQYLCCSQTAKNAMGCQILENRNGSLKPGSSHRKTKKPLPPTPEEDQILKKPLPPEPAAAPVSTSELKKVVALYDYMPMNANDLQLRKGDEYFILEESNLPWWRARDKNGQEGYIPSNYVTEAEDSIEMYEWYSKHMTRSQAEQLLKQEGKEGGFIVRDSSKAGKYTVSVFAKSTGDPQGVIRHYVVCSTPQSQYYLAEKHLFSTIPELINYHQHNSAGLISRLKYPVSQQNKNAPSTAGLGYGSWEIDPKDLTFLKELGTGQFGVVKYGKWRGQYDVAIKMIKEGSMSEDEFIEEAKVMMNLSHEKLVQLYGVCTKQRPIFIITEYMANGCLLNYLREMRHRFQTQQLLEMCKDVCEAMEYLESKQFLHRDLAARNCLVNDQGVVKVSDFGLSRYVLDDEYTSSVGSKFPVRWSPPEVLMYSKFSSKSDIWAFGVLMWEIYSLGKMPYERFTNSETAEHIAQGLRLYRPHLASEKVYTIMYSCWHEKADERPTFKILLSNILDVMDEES
Chain of Btk (Q5S255 1-660): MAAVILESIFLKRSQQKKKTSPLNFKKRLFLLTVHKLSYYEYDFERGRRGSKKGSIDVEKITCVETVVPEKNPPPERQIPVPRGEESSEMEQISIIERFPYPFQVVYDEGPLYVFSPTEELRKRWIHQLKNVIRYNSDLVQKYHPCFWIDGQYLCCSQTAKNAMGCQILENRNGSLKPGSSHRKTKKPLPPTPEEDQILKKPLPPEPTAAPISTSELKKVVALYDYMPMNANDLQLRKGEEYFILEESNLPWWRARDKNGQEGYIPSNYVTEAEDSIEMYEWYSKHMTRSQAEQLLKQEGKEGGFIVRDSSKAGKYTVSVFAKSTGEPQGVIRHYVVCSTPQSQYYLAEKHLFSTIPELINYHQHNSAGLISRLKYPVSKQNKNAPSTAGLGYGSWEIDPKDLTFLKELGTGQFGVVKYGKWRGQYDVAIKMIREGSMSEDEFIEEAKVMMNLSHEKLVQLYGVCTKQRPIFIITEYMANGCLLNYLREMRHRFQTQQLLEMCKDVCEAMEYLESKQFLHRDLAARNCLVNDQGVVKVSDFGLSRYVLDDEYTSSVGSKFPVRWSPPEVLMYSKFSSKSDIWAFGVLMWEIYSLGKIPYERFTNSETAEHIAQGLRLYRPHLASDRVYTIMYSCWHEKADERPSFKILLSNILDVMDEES

Row | IC50 [1] | IC50 (Btk) | Compound
1 | 38 nM | 1110 nM | C/C=C/C(=O)N1CC(Oc2c(N)ncnc2-c2cc(F)cc(NC(=O)c3ccc(C4CC4)cc3F)c2C)C1 [Example 2, (E)-N-(3-(6-Amino-5-((1-(but-2-enoyl)azetidin-3-yl)oxy)pyrimidin-4-yl)-5-fluoro-2-methylphenyl)-4-cyclopropyl-2-fluorobenzamide]
2 | 1 nM | 124 nM | C#CC(=O)N1CC(Oc2c(N)ncnc2-c2cc(F)cc(NC(=O)c3ccc(C4CC4)cc3F)c2C)C1 [Example 3, N-(3-(6-Amino-5-((1-propioloylazetidin-3-yl)oxy)pyrimidin-4-yl)-5-fluoro-2-methylphenyl)-4-cyclopropyl-2-fluorobenzamide]
3 | 9 nM | 376 nM | CC#CC(=O)N1CC(Oc2c(N)ncnc2-c2cc(F)cc(NC(=O)c3ccc(C4CC4)cc3F)c2C)C1 [Example 4, N-(3-(6-Amino-5-((1-(but-2-ynoyl)azetidin-3-yl)oxy)pyrimidin-4-yl)-5-fluoro-2-methylphenyl)-4-cyclopropyl-2-fluorobenzamide]
4 | 10 nM | 323 nM | Cc1c(NC(=O)c2ccc(C3CC3)cc2F)cc(F)cc1-c1ncnc(N)c1OCCN(C)C(=O)C1CO1 (centres unmarked) [Example 11, N-(2-((4-Amino-6-(3-(4-cyclopropyl-2-fluorobenzamido)-5-fluoro-2-methylphenyl)pyrimidin-5-yl)oxy)ethyl)-N-methyloxirane-2-carboxamide]
5 | 12 nM | 459 nM | C=CC(=O)N(C)CCOc1c(N)ncnc1-c1cccc(-n2ccc3cc(C4CC4)cc(F)c3c2=O)c1 [Example 12, N-(2-((4-Amino-6-(3-(6-cyclopropyl-8-fluoro-1-oxoisoquinolin-2(1H)-yl)phenyl)pyrimidin-5-yl)oxy)ethyl)-N-methylacrylamide]
6 | 1 nM | 29 nM | C=CC(=O)N(CCF)CCOc1c(N)ncnc1-c1cc(F)cc(NC(=O)c2ccc(C3CC3)cc2F)c1C [Example 15, N-(3-(6-Amino-5-(2-(N-(2-fluoroethyl)acrylamido)ethoxy)pyrimidin-4-yl)-5-fluoro-2-methylphenyl)-4-cyclopropyl-2-fluorobenzamide]
7 | 15 nM | 558 nM | C=CC(=O)NC1(COc2c(N)ncnc2-c2cc(F)cc(NC(=O)c3ccc(C4CC4)cc3F)c2C)CC1 [Example 16, N-(3-(5-((1-Acrylamidocyclopropyl)methoxy)-6-aminopyrimidin-4-yl)-5-fluoro-2-methylphenyl)-4-cyclopropyl-2-fluorobenzamide]
8 | 1 nM | 419 nM | CC#CC(=O)N[C@@H](C)COc1c(N)ncnc1-c1cc(F)cc(NC(=O)c2ccc(C3CC3)cc2F)c1C [Example 18, (S)—N-(3-(6-Amino-5-(2-(but-2-ynamido)propoxy)pyrimidin-4-yl)-5-fluoro-2-methylphenyl)-4-cyclopropyl-2-fluorobenzamide]
9 | 5 nM | 330 nM | CC#CC(=O)N(C)[C@@H](C)COc1c(N)ncnc1-c1cc(F)cc(NC(=O)c2ccc(C3CC3)cc2F)c1C [Example 20, (S)—N-(3-(6-Amino-5-(2-(N-methylbut-2-ynamido)propoxy)pyrimidin-4-yl)-5-fluoro-2-methylphenyl)-4-cyclopropyl-2-fluorobenzamide]
10 | 1 nM | 57 nM | CC#CC(=O)N1CCC[C@H]1COc1c(N)ncnc1-c1cc(F)cc(NC(=O)c2ccc(C3CC3)cc2F)c1C [Example 23, (S)—N-(3-(6-Amino-5-((1-(but-2-ynoyl)pyrrolidin-2-yl)methoxy)pyrimidin-4-yl)-5-fluoro-2-methylphenyl)-4-cyclopropyl-2-fluorobenzamide]
11 | 0.5 nM | 32 nM | C=CC(=O)N1CCC[C@H]1COc1c(N)ncnc1-c1cc(F)cc(N2CCc3cc(C4CC4)ccc3C2=O)c1CO [Example 24, (S)-2-(3-(5-((1-Acryloylpyrrolidin-2-yl)methoxy)-6-aminopyrimidin-4-yl)-5-fluoro-2-(hydroxymethyl)phenyl)-6-cyclopropyl-3,4-dihydroisoquinolin-1(2H)-one]
12 | 1 nM | 65 nM | C=CC(=O)N(C)CCOc1c(N)ncnc1-c1cc(F)cc(N2CCc3cc(C4CC4)ccc3C2=O)c1CO [Example 25, N-(2-((4-Amino-6-(3-(6-cyclopropyl-1-oxo-3,4-dihydroisoquinolin-2(1H)-yl)-5-fluoro-2-(hydroxymethyl)phenyl)pyrimidin-5-yl)oxy)ethyl)-N-methylacrylamide]
13 | 0.4 nM | 51 nM | C=CC(=O)N1C[C@H](OC)C[C@H]1COc1c(N)ncnc1-c1cc(F)cc(NC(=O)c2ccc(C3CC3)cc2F)c1C [Example 26, N-(3-(5-(((2S,4R)-1-Acryloyl-4-methoxypyrrolidin-2-yl)methoxy)-6-aminopyrimidin-4-yl)-5-fluoro-2-methylphenyl)-4-cyclopropyl-2-fluorobenzamide]
14 | 3 nM | 76 nM | CC#CC(=O)N1C[C@H](OC)C[C@H]1COc1c(N)ncnc1-c1cc(F)cc(NC(=O)c2ccc(C3CC3)cc2F)c1C [Example 27, N-(3-(6-Amino-5-(((2S,4R)-1-(but-2-ynoyl)-4-methoxypyrrolidin-2-yl)methoxy)pyrimidin-4-yl)-5-fluoro-2-methylphenyl)-4-cyclopropyl-2-fluorobenzamide]
15 | 1 nM | 33 nM | C=CC(=O)N1C[C@H](OC)C[C@H]1COc1c(N)ncnc1-c1cc(F)cc(N2CCc3cc(C4CC4)ccc3C2=O)c1CO [Example 28, 2-(3-(5-(((2S,4R)-1-Acryloyl-4-methoxypyrrolidin-2-yl)methoxy)-6-aminopyrimidin-4-yl)-5-fluoro-2-(hydroxymethyl)phenyl)-6-cyclopropyl-3,4-dihydroisoquinolin-1(2H)-one]
16 | 4 nM | 134 nM | C=CC(=O)N1C[C@@H](OC)C[C@H]1COc1c(N)ncnc1-c1cc(F)cc(NC(=O)c2ccc(C3CC3)cc2F)c1C [Example 29, N-(3-(5-(((2S,4S)-1-Acryloyl-4-methoxypyrrolidin-2-yl)methoxy)-6-aminopyrimidin-4-yl)-5-fluoro-2-methylphenyl)-4-cyclopropyl-2-fluorobenzamide]

Row | Compound | IC50 [1] | IC50 (Btk)
17 | COC/C=C/C(=O)N(C)CCOc1c(N)ncnc1-c1cc(F)cc(NC(=O)c2ccc(C3CC3)cc2F)c1C [Example 9, (E)-N-(3-(6-Amino-5-(2-(4-methoxy-N-methylbut-2-enamido)ethoxy)pyrimidin-4-yl)-5-fluoro-2-methylphenyl)-4-cyclopropyl-2-fluorobenzamide] | 10 nM | 240 nM
18 | C=CC(=O)N[C@@H](C)COc1c(N)ncnc1-c1cc(F)cc(NC(=O)c2ccc(C3CC3)cc2F)c1C [Example 17, (S)—N-(3-(5-(2-Acrylamidopropoxy)-6-aminopyrimidin-4-yl)-5-fluoro-2-methylphenyl)-4-cyclopropyl-2-fluorobenzamide] | 5 nM | 246 nM
19 | C=CC(=O)N(C)[C@@H](C)COc1c(N)ncnc1-c1cc(F)cc(NC(=O)c2ccc(C3CC3)cc2F)c1C [Example 19, (S)—N-(3-(6-Amino-5-(2-(N-methylacrylamido)propoxy)pyrimidin-4-yl)-5-fluoro-2-methylphenyl)-4-cyclopropyl-2-fluorobenzamide] | 16 nM | 136 nM
